The text below walks through data of US20100104624A1, “COMBINATION THERAPY USING PHOSPHODIESTERASE INHIBITORS” (priority 2008, published 2010).

The subject of data set [1] is patient. The note with it: for headache side-effect of PDE-5 inhibitor: Example 4: patient, erectile dysfunction secondary to medications, hemicrania continua; for headache side-effect of Viagra: Viagra alone. The procedure:
A patient with a history of migraines had difficulty sustaining an erection for long periods of time.
A patient presented with erectile dysfunction secondary to medications and hemicrania continua (a largely refractory condition consisting of a constant one-sided headache). […] They were then prescribed cafergot, a combination of ergotamine and caffeine, at a dose of 1 mg and instructed to take this with the Clalis.
A patient experienced intermittent erectile dysfunction due to stress.

The test system of data set [2] is patient. Kind of data set: Patient case reports: alleviation of PDE-5 inhibitor headache by a co-administered agent. The data set is classed as in vivo.
Where [3] appears, read: Example 3: patient with history of migraines.

Structures can show the parent of a compound that is named as a salt. Where two headings read alike, the source gives them in different places.

Take `CN1CC(=O)N2[C@H](c3ccc4c(c3)OCO4)c3[nH]c4ccccc4c3C[C@@H]2C1=O` [Clalis, tadalafil]: the “headache side-effect of PDE-5 inhibitor” value in the data set on patient [1] is “exacerbated their headaches”.
For `CC(C)Cc1ccc(C(C)C(=O)O)cc1` (centres unmarked) [Ibuprofen], the “effect on Viagra headache” value in the data set on patient [2] (setting [3]) was “had no effect on the headache”.
Take `CNS(=O)(=O)Cc1ccc2[nH]cc(CCN(C)C)c2c1` [Imitrex, sumatriptan succinate]: the “relief of Viagra headache” value with patient [2] (Example 5: Imitrex nasal spray at a dose of 25 mg) is on record as “alleviated the headache to the point where they could enjoy the sex”.
`N[C@@H](Cc1c[nH]c2ccccc12)C(=O)O` [L-tryptophan]: in the data set on patient [2] (Example 6: L-tryptophan supplements the night before sexual intercourse), the “prevention of Viagra headache” value is “headache-free sex”.
`CN[C@@H](C)[C@@H](O)c1ccccc1` [Sudafed, pseudoephedrine hydrochloride]: the results for the “relief of Viagra headache” value in the data set on patient [2] (Example 1: one Sudafed tablet), in the data set with patient [2] (Example 1: two Sudafed tablets concomitantly with the Viagra) and in the data set on patient [2] (Example 5: patient) were “only minimal relief”, “headache was still present but had abated enough to where they could enjoy the experience” and “did not relieve the headache”, respectively. Moreover, the “prevention of Viagra headache” value in the data set with patient [2] (Example 2: one Sudafed tablet with the Viagra) was “did not develop a headache”.
As for `CCCc1nn(C)c2c(=O)[nH]c(-c3cc(S(=O)(=O)N4CCN(C)CC4)ccc3OCC)nc12` [Viagra, sildenafil citrate], the “headache side-effect of Viagra” value in the data set with patient [1] (Example 1: patient, erectile dysfunction secondary to low testosterone) is reported as “inability to use Viagra because of headaches”; in the data set with patient [1] (Example 2: patient without erectile dysfunction), “bothered by headaches”; with patient [1] (setting [3]), “intolerable headaches”; with patient [1] (Example 5: patient, intermittent erectile dysfunction due to stress), “could not tolerate the headache”; in the data set on patient [1] (Example 6: patient with psychologic erectile dysfunction) it was “experiencing headaches”; in the data set with patient [1] (Example 7: patient), “suffered from headaches”. Further, in the data set on patient [1], the “headache side-effect of PDE-5 inhibitor” value is listed as “exacerbated their headaches”.
Take `CC(=O)Nc1ccc(O)cc1` [acetaminophen]: the “effect on Viagra headache” value in the data set with patient [2] (setting [3]) was “had no effect on the headache”.
In the case of `CC(C)(C)NCC(O)c1ccc(O)c(CO)c1` (centres unmarked) [albuterol], the “relief of Viagra headache” value in the data set on patient [2] (Example 7: two puffs of albuterol inhaler after developing a headache from the Viagra) is listed as “headache was alleviated”.
For `Cn1c(=O)c2c(ncn2C)n(C)c1=O` [caffeine], the entries for the “relief of Viagra headache” value with patient [2] (Example 1: caffeine administered prior to taking the Viagra) and with patient [2] (Example 5: patient) were “did not help” and “did not relieve the headache”, respectively.
For the molecule `CN(C)CCc1c[nH]c2ccc(Cn3cncn3)cc12` [rizatriptan], the “effect on Viagra headache” value in the data set with patient [2] (Example 3: 5 mg tablet of rizatriptan with the Viagra) is “made the headache tolerable”.
